Source: US10364256B2 (GlaxoSmithKline Intellectual Property Development Limited, priority 2015, dated 2019)
Like-named read-outs stand apart in the source and are kept apart here.

Assays:
[1] = molecular target: T1, Keap1 Kelch domain (321-609) / TAMRA-labeled 16mer NRF2 peptide (ETGE motif) (Homo sapiens, UniProt Q14145); assay: NRF2-Keap1 FP Assay (Keap1 Kelch fluorescence polarization); type: binding; conditions: 20 nM Keap1 (321-609), 8 nM Tamra labeled peptide
T1 construct: the Kelch domain (321-609) of Keap1 is used
T1 sequence (Q14145 321-609): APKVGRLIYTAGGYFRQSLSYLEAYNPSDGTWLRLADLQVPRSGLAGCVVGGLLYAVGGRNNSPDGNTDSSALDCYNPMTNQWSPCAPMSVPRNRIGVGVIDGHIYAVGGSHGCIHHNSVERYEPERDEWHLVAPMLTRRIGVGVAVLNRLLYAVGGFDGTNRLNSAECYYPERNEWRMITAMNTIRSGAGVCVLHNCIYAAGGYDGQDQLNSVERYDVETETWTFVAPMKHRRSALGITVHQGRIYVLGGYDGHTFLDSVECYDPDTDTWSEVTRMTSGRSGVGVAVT
Procedure, shortened: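 Compound dilutions (3-fold) were incubated 1 hr at room temperature with 20 nM Keap1 Kelch (321-609) and 8 nM TAMRA-labeled ETGE 16mer peptide. Buffer was 50 mM Tris pH 8.0, 100 mM NaCl, 5 mM MgCl2, 1 mM DTT, 2 mM CHAPS, 0.005% BSA. Fluorescence polarization (mP) was normalized to controls and fitted with a four-parameter equation to give pIC50.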

[2] = molecular target: T2, full length Keap1 protein / full length NRF2 protein (Homo sapiens, UniProt Q14145); assay: NRF2-Keap1 TR-FRET Assay; type: binding; conditions: 25 nM Keap1-FlagHis and 50 nM biotin-NRF2 added
T2 construct: full length NRF2 protein and full length Keap1 protein (Keap1 exists a dimer) are used; His
T2 sequence (Q14145 whole entry): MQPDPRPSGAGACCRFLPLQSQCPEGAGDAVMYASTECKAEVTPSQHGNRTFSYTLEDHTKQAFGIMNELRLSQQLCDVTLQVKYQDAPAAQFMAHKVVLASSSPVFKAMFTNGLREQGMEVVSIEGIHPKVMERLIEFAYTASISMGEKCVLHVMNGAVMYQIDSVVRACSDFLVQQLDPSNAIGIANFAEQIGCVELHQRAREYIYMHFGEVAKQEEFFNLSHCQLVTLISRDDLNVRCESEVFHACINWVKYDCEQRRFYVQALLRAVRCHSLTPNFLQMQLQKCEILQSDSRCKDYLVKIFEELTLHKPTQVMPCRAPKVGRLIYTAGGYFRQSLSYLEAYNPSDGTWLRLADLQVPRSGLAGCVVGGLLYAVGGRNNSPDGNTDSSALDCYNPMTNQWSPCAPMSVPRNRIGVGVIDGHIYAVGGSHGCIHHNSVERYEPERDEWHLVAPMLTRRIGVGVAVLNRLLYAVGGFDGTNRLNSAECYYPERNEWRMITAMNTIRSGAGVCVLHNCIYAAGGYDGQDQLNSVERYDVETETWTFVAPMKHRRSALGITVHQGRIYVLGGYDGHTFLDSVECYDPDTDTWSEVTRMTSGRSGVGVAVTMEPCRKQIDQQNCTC
Excerpt: In the NRF2-Keap1 TR-FRET (time-resolved fluorescence resonance energy transfer) assay, full length NRF2 protein and full length Keap1 protein (Keap1 exists a dimer) are used. The assay detects the ability of compound to displace the binding of FlagHis-tagged Keap1 with biotinylated, Avi-tagged NRF2 protein. Biotin-NRF2 binds to streptavidin-europium (a component of the detection mix) and Keap1-FlagHis is recognized by anti-Flag APC (allophycocyanin) antibody (also a component of the detection mix). If binding occurs between the two proteins, there will be an energy transfer from the Eu+3 (donor) at 615 nm to the APC (acceptor) at 665 nm. A potential Keap1 inhibitor will cause a reduction in the TR-FRET signal by interfering with the binding of Keap1 to NRF2.
One hundred nanoliters of 100× compound dose response curves (serial 3-fold dilutions) in DMSO are stamped using an Echo liquid handling system (Labcyte) into 384-well, low volume, black assay plates (Greiner, #784076), with DMSO in columns 6 and 18. The top concentration of compound is located in columns 1 and 13. All reagents are diluted in assay buffer (50 mM Tris, pH 8.0, 5 mM MgCl2, 100 mM NaCl, 0.005% BSA, 1 mM DTT, and 2 mM CHAPS). The BSA, DTT, and CHAPS are added to the assay buffer on the day of assay. Using a Multidrop Combi (Thermo Electron Corporation) equipped with a metal tip dispenser, 5 ul of 25 nM Keap1-FlagHis protein is added to all wells of the compound plate, with the exception of the wells in column 18. Wells in column 18 receive 5 ul of assay buffer instead. Plates are centrifuged at 500 rpm for 1 minute, covered with a plate lid, and incubated at 37° C. for 2.25 hours. Plates are then removed from the incubator and allowed to cool to RT for 15 minutes. Five microliters of 50 nM biotin-NRF2 protein is then added to all wells of the plates and the plates are spun at 500 rpm for 1 minute, followed by incubating at 4° C. for 1.25 hours. The plates are then allowed to warm to RT for 15 minutes, followed by the addition of 10 ul of detection mix (1 nM Streptavidin Eu+ W1024 and 5 ug/ml mouse anti-DYKDDDDK IgG conjugated to SureLight APC antibody; both from Columbia Biosciences) to all wells. Plates are spun at 500 rpm for 1 minute, incubated for 1 hour at RT, and read on an Envision plate reader using a 320 nm excitation filter and 615 nm and 665 nm emission filters. Compound response (% inhibition) and potency (pIC50) are calculated based on the ratio of the two emissions (665 nm/615 nm) and then the transformed data is normalized against controls in the assay (control 1=1% DMSO in the presence of NRF2 and Keap1 protein and control 2=1% DMSO in the absence of protein). Data analysis is handled using the software package Abase XE (Surrey, United Kingdom). The % inhibition values are calculated from the ratio (transformed) data by the equation: 100−(100*(compound response−average control 2)/(average control 1−average control2)). For calculation of pIC50s, Abase XE uses a four parameter equation. pIC50 is the negative log of the IC50.

[3] = system: NQO1 specific enzyme activity in BEAS-2B cells (marker for NRF2 activation); assay: BEAS-2B NQO1 MTT Assay; type: cell-based; conditions: Homo sapiens
Procedure, shortened: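 NQO1 specific activity induction is derived from the rate of MTT reduction (ΔOD/min, 570 nm, 30 min kinetic read) in crude lysates of BEAS-2B cells exposed to compound for 48 h. A 3-parameter fit gives EC50, reported as pEC50; part of each lysate goes to Cell Titer Glo.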

[4] = molecular target: T2, full length Keap1 protein / full length NRF2 protein; assay: NRF2-Keap1 TR-FRET Low Protein Assay; type: binding; conditions: 1.25 nM Keap1 FlagHis and 2.5 nM biotin-NRF2 added
Procedure, shortened: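 Flag-tagged full-length Keap1 was preincubated with compound (3-fold series) for 2.25 h at 37 °C in Tris pH 8.0/MgCl2/NaCl/BSA/DTT/CHAPS. Biotin-Avi-NRF2 (added at 2.5 nM) was then bound for 1.25 h at 4 °C. Eu-streptavidin/anti-Flag-APC TR-FRET (665/615 nm) was read after 1 h at RT, and pIC50 came from a four-parameter fit.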

[5] = compound incubated 48 hours, read-out: EC50 (NQO1 specific enzyme activity induction)

| SMILES | IC50 [1] [nM] | IC50 [2] [nM] | EC50 [3, 5] [nM] | IC50 [4] [nM] | EC50 ([3]; BEAS-2B, 48 h, compound incubated 48 hours, read-out: EC50 (NQO1 specific enzyme activity induction)) [nM] | EC50 ([3]; in two determinations (footnote ϕ), read-out: EC50 in two determinations) [nM] |
| --- | --- | --- | --- | --- | --- | --- |
| CC(=O)N[C@@H]1CC[C@H](c2c(C(=O)O)cnn2-c2cccc(-c3cccc(OC(C)C)c3F)c2)C1 (racemic) [Example 13, 5-[(cis)-3-Acetamidocyclopentyl]-1-{3-[2-fluoro-3-(propan-2-yloxy)phenyl]phenyl}-1H-pyrazole-4-carboxylic Acid] | 1000 to 10000 | 10000 to 100000 | 1000 to 10000 | – | – | – |
| Cn1cc([C@H]2C[C@@H]2c2c(C(=O)O)cnn2-c2cccc(-c3cccc(OCC(C)(C)C)c3)c2)nn1 (racemic) [Example 226, 5-((1,2-trans)-2-(1-Methyl-1H-1,2,3-triazol-4-yl)cyclopropyl)-1-(3′-(neopentyloxy)-[1,1′-biphenyl]-3-yl)-1H-pyrazole-4-carboxylic acid] | 100 to 1000 | 100 to 1000 | 10 to 100 | – | – | – |
| Cn1cc([C@H]2C[C@@H]2c2c(C(=O)O)cnn2-c2cccc(-c3cccc(OCc4cncnc4)c3)c2)nn1 (racemic) [Example 236, 5-((1,2-trans)-2-(1-Methyl-1H-1,2,3-triazol-4-yl)cyclopropyl)-1-(3′-(pyrimidin-5-ylmethoxy)-[1,1′-bipheny1]-3-yl)-1H-pyrazole-4-carboxylic acid] | 100 to 1000 | 1000 to 10000 | 1000 to 10000 | – | – | – |
| Cn1cc([C@@H]2C[C@H]2c2c(C(=O)O)cnn2-c2cccc(-c3cccc(CN4CCCCC4)c3)c2)nn1 (racemic) [Example 247, 5-(trans-2-(1-Methyl-1H-1,2,3-triazol-4-yl)cyclopropyl)-1-(3′-(piperidin-1-ylmethyl)-[1,1′-biphenyl]-3-yl)-1H-pyrazole-4-carboxylic Acid] | 100 to 1000 | 1000 to 10000 | 1000 to 10000 | – | – | – |
| Cn1cc([C@@H]2C[C@H]2c2c(C(=O)O)cnn2-c2cccc(-c3cccc(CN4CCOCC4)c3)c2)nn1 (racemic) [Example 248, 5-(trans-2-(1-Methyl-1H-1,2,3-triazol-4-yl)cyclopropyl)-1-(3′-(morpholinomethyl)-[1,1′-biphenyl]-3-yl)-1H-pyrazole-4-carboxylic Acid] | 100 to 1000 | 100 to 1000 | 1000 to 10000 | – | – | – |
| CN(CC1CC1)C(=O)c1cccc(-c2cccc(-n3ncc(C(=O)O)c3[C@@H]3C[C@H]3c3cn(C)nn3)c2)c1F (racemic) [Example 265] | 10 to 100 | 10 to 100 | 1000 to 10000 | – | – | – |
| C[C@H]1Cc2ccc(Br)cc2S(=O)(=O)N(Cc2cccc(-c3cccc(-n4ncc(C(=O)O)c4[C@@H]4C[C@H]4c4cn(C)nn4)c3)c2F)C1 [Example 131, 1-(3′-(((S)-8-Bromo-4-methyl-1,1-dioxido-4,5-dihydrobenzo[f][1,2]thiazepin-2(3H)-yl)methyl)-2′-fluoro-[1,1′-biphenyl]-3-yl)-5-((1R,2R)-2-(1-methyl-1H-1,2,3-triazol-4-yl)cyclopropyl)-1H-pyrazole-4-carboxylic acid] | 10 to 100 | – | 100 to 1000 | < 10 | – | – |
| C[C@H]1Cc2ccccc2S(=O)(=O)N(Cc2cccc(-c3cccc(-n4ncc(C(=O)O)c4[C@@H]4C[C@H]4c4cn(C)nn4)c3)c2)C1 [Example 132, 1-(3′-(((S)-4-methyl-1,1-dioxido-4,5-dihydrobenzo[f][1,2]thiazepin-2(3H)-yl)methyl)-[1,1′-biphenyl]-3-yl)-5-((1R,2R)-2-(1-methyl-1H-1,2,3-triazol-4-yl)cyclopropyl)-1H-pyrazole-4-carboxylic acid] | 10 to 100 | – | 100 to 1000 | < 10 | – | – |
| C[C@H]1Cc2ccccc2S(=O)(=O)N(Cc2cccc(-c3cccc(-n4ncc(C(=O)O)c4[C@H]4C[C@@H]4c4cn(C)nn4)c3)c2)C1 [Example 133, 1-(3′-(((S)-4-methyl-1,1-dioxido-4,5-dihydrobenzo[f][1,2]thiazepin-2(3H)-yl)methyl)-[1,1′ biphenyl]-3-yl)-5-((1S,2S)-2-(1-methyl-1H-1,2,3-triazol-4-yl)cyclopropyl)-1H-pyrazole-4-carboxylic acid] | 100 to 1000 | – | 1000 to 10000 | 10 to 100 | – | – |
| CCN1CCN(Cc2cccc(-c3cccc(-n4ncc(C(=O)O)c4[C@@H]4C[C@H]4c4cn(C)nn4)c3)c2)S(=O)(=O)c2ccccc21 [Example 139, 1-(3′-((5-Ethyl-1,1-dioxido-4,5-dihydrobenzo[f][1,2,5]thiadiazepin-2(3H)-yl)methyl)-[1,1′-biphenyl]-3-yl)-5-((1R, 2R)-2-(1-methyl-1H-1,2,3-triazol-4-yl)cyclopropyl)-1H-pyrazole-4-carboxylic acid] | 10 to 100 | – | 1000 to 10000 | < 10 | – | – |
| C[C@@H](Oc1cccc(-c2cccc(-n3ncc(C(=O)O)c3[C@@H]3C[C@H]3c3cn(C)nn3)c2)c1)C1CCCCC1 [Example 162, 1-(3′-((R)-1-Cyclohexylethoxy)-[1,1′-biphenyl]-3-yl)-5-((1R,2R)-2-(1-methyl-1H-1,2,3-triazol-4-yl)cyclopropyl)-1H-pyrazole-4-carboxylic Acid] | 100 to 1000 | – | – | 10 to 100 | 10 to 100 | – |
| Cn1cc(C2CC2c2c(C(=O)O)cnn2-c2cccc(-c3cccc(OCCC4CCCCC4)c3)c2)nn1 (stereo not shown) [Example 170, 1-(3′-(2-Cyclohexylethoxy)-[1,1′-biphenyl]-3-yl)-5-(2-(1-methyl-1H-1,2,3-triazol-4-yl)cyclopropyl)-1H-pyrazole-4-carboxylic acid] | 10 to 100 | – | 100 to 1000 | 10 to 100 | – | – |
| CCn1cc([C@H]2C[C@@H]2c2c(C(=O)O)cnn2-c2cc(OC)cc(-c3cccc(OC(C)C4CCCCC4)c3)c2)nn1 (stereo partly drawn) [Example 193, 1-(3′-(1-cyclohexylethoxy)-5-methoxy-[1,1′-biphenyl]-3-yl)-5-((1S,2S)-2-(1-ethyl-1H-1,2,3-triazol-4-yl)cyclopropyl)-1H-pyrazole-4-carboxylic acid] | 100 to 1000 | – | 100 to 1000 | 100 to 1000 | – | – |
| CC[C@@H]1CN(Cc2cccc(-c3cccc(-n4ncc(C(=O)O)c4[C@@H]4C[C@H]4c4cn(C)nn4)c3)c2)S(=O)(=O)c2ccccc2O1 [Example 255, 1-(3′-(((R)-4-Ethyl-1,1-dioxido-3,4-dihydro-2H-benzo[b][1,4,5]oxathiazepin-2-yl)methyl)-[1,1′-biphenyl]-3-yl)-5-(trans-2-(1-methyl-1H-1,2,3-triazol-4-yl)cyclopropyl)-1H-pyrazole-4-carboxylic Acid] | 10 to 100 | – | 100 to 1000 | < 10 | – | > 1000 |
| CC[C@@H]1CN(C(=O)c2cccc(-c3cccc(-n4ncc(C(=O)O)c4[C@@H]4C[C@H]4c4cn(C)nn4)c3)c2)Cc2ccccc2O1 [Example 257] | 10 to 100 | – | 1000 to 10000 | < 10 | – | – |
